Test results: EP0478545B1, “1,2,4-BENZOTRIAZINE OXIDES AS RADIOSENSITIZERS AND SELECTIVE CYTOTOXIC AGENTS” (SRI INTERNATIONAL, priority 1989, dated 1991)
≈ marks a conversion by molar mass, not a printed value. Counter-ions that a name gives are not always drawn.

Tests used:
[1] = Octanol-water partition coefficient (method of Fujita et al.); conditions: pH 7.4
Determination of LD50 = conditions: mouse, in vivo; Balb/c female mice 3-5 months of age; ip (or iv) injection in physiological saline
Description: LD50 is determined in BALB/c female mice (weighing 20-25 g) following intraperitoneal (ip) injection, unless the compound tested has low lipophilicity and is very soluble, wherein intravenous (iv) administration is used. LD50 values at 1, 2, 5, and 60 days are determined by administering graded doses of the drug dissolved in physiological saline immediately prior to injection.

physchem [2] = conditions: pH 7.4
physchem [3] = assay: physchem

Compound	solubility (Solubility)	logP ([1]; octanol/water)	LD50 (Determination of LD50)	logP [1]	logP (physchem [2])	solubility (physchem [3])
Nc1n[n+]([O-])c2cc([N+](=O)[O-])ccc2[n+]1[O-] [Compound 14, 7-nitro-3-amino-1,2,4-benzotriazine 1,4-dioxide]	2 mM (≈ 446 µg/mL)	-0.97	1000 µmol/kg			
CCN(CC)CCNc1n[n+]([O-])c2cc([N+](=O)[O-])ccc2[n+]1[O-] [Compound 21, 7-nitro-3-(2-N,N-diethylaminoethylamino)-1,2,4-benzotriazine 1,4-dioxide hydrochloride]				-0.2		
Nc1n[n+]([O-])c2ccccc2[n+]1[O-] [Compound 22]			500 µmol/kg		-0.32	13.5 mM (≈ 2410 µg/mL)
